Reference: patent US20220168427A1 (Ranok Therapeutics (Hangzhou) Co. Ltd., priority 2019, published 2022)
Where a name gives a salt, the structure may show the parent alone.

Tests used:
HSP90α = HSP90α (Homo sapiens, UniProt P07900); test: HSP90α Binding Fluorescent Polarization (FP) Assay; conditions: competition with FITC-geldanamycin; read-out: HSP90 Binding Potency
Experimental: HSP90α Binding Fluorescent Polarization (FP) Assay
A master mix was prepared with assay buffer, BSA and FITC-geldanamycin. In a 96-well plate, a serial 3-fold dilution of each compound was prepared ranging from 40 μM down until 2.0 nM. Also in a 96-well plate, recombinant HSP90α protein was diluted to 28 μg/ml. Then, in a 384-well plate, 10 μl of master mix and 5 μl of compound dilution were added per well to duplicate wells and mixed by brief shaking. Then 5 μl of diluted HSP90α protein was added per well, mixed by brief shaking, incubated at 25° C. for 30, 60 and 120 min and fluorescence was measured on an EnVision Plate Reader. Background-subtracted mP values were calculated from EnVision raw data and a four-parameter “log[inhibitor] vs. response” curve was fitted using GraphPad Prism 7.0.

BRD4 (BD1+BD2) = molecular target: T1, BRD4 (BD1+BD2) (Homo sapiens, UniProt O60885); conditions: read-out: BRD4 Binding Potency
T1 construct: 1.8 μg/ml recombinant BRD4 (BD1+BD2 domains) protein
Experimental: A master mix was prepared with assay buffer, 1.8 μg/ml recombinant BRD4 (BD1+BD2 domains) protein, and 200-fold dilutions of Tb-labeled donor and dye-labeled acceptor. 40-fold dilutions of acetylated and non-acetylated ligands were prepared in 1×BRD TR-FRET assay buffer. Also, a serial 3-fold dilution of each compound was prepared ranging from 40 μM down until 2.0 nM. In a 384-well plate, 5 μl diluted ligand and 5 μl of compound dilution were added per well to duplicate wells and mixed by brief shaking. Then 10 μl of master mix was added per well, mixed by brief shaking, incubated at 25° C. for 2 hr and fluorescence was measured on an EnVision Plate Reader. The 665 nm/615 nm ratio was calculated from EnVision raw data. Data were normalized using whole-plate averages of “positive” and “negative” readings. A four-parameter “log[inhibitor] vs. response” curve was fitted using GraphPad Prism 7.0.

MV4-11 cells = test: MV4-11 Cell Cytotoxicity Assay; format: cell-based, human; conditions: human, MV4-11 cells, CCK-8
Excerpt: % Inhibition=100−(D−B)/(S−B)*100%.
S: The absorbance of the maximum (cells with DMSO)
B: The absorbance of the minimum (medium with DMSO)

Structure (SMILES): CCn1c(=O)/c(=C2\Sc3ccccc3N2C)s/c1=C\c1cccc[n+]1CCNC(=O)C[C@@H]1N=C(c2ccc(Cl)cc2)c2c(sc(C)c2C)-n2c(C)nnc21 [Compound 8, 1-(2-(2-((6S)-4-(4-chlorophenyl)-2,3,9-trimethyl-6H-thieno[3,2-f][1,2,4]triazolo[4,3-a][1,4]diazepin-6-yl)acetamido)ethyl)-2-((Z)-((E)-3-ethyl-5-(3-methylbenzo[d]thiazol-2(3H)-ylidene)-4-oxothiazolidin-2-ylidene)methyl)pyridin-1-ium]
- IC50 (HSP90α): > 1 µM
- IC50 (BRD4 (BD1+BD2)): 0.1 to 1 µM
- IC50 at 72 h (MV4-11 cells): > 1 µM

Structure (SMILES): Cc1cc(-c2nnc(O)n2-c2ccc(CN3CCN(CC4CCN(C(=O)C[C@@H]5N=C(c6ccc(Cl)cc6)c6c(sc(C)c6C)-n6c(C)nnc65)CC4)CC3)cc2)c(O)cc1O [Compound 9, 2-((6S)-4-(4-chlorophenyl)-2,3,9-trimethyl-6H-thieno[3,2-f][1,2,4]triazolo[4,3-a][1,4]diazepin-6-yl)-1-(4-((4-(4-(3-(2,4-dihydroxy-5-methylphenyl)-5-hydroxy-4H-1,2,4-triazol-4-yl)benzyl)piperazin-1-yl)methyl)piperidin-1-yl)ethanone, trifluoroacetic acid]
- IC50 (HSP90α): 0.1 to 1 µM
- IC50 (BRD4 (BD1+BD2)): < 0.1 µM
- IC50 at 72 h (MV4-11 cells): < 0.1 µM

Structure (SMILES): CCc1cc(-c2nnc(O)n2-c2ccc(CN3CCN(CC4CCN(C(=O)C[C@@H]5N=C(c6ccc(Cl)cc6)c6c(sc(C)c6C)-n6c(C)nnc65)CC4)CC3)cc2)c(O)cc1O [Compound 10, (S)-2-(4-(4-chlorophenyl)-2,3,9-trimethyl-6H-thieno[3,2-f][1,2,4]triazolo[4,3-a][1,4]diazepin-6-yl)-1-(4-((4-(4-(3-(5-ethyl-2,4-dihydroxyphenyl)-5-hydroxy-4H-1,2,4-triazol-4-yl)benzyl)piperazin-1-yl)methyl)piperidin-1-yl)ethan-1-one hydrochloride]
- IC50 (HSP90α): 0.1 to 1 µM
- IC50 (BRD4 (BD1+BD2)): 0.1 to 1 µM
- IC50 at 72 h (MV4-11 cells): < 0.1 µM

Structure (SMILES): CCCc1cc(-c2nnc(O)n2-c2ccc(CN3CCN(CC4CCN(C(=O)C[C@@H]5N=C(c6ccc(Cl)cc6)c6c(sc(C)c6C)-n6c(C)nnc65)CC4)CC3)cc2)c(O)cc1O [Compound 11, (S)-2-(4-(4-chlorophenyl)-2,3,9-trimethyl-6H-thieno[3,2-f][1,2,4]triazolo[4,3-a][1,4]diazepin-6-yl)-1-(4-((4-(4-(3-(2,4-dihydroxy-5-propylphenyl)-5-hydroxy-4H-1,2,4-triazol-4-yl)benzyl)piperazin-1-yl)methyl)piperidin-1-yl)ethan-1-one, trifluoroacetic acid]
- IC50 (HSP90α): < 0.1 µM
- IC50 (BRD4 (BD1+BD2)): 0.1 to 1 µM
- IC50 at 72 h (MV4-11 cells): < 0.1 µM

Structure (SMILES): Cc1sc2c(c1C)C(c1ccc(Cl)cc1)=N[C@@H](CC(=O)N1CCC(CN3CCN(Cc4ccc(-n5c(S)nnc5-c5cc(C(C)C)c(O)cc5O)cc4)CC3)CC1)c1nnc(C)n1-2 [Compound 12, 2-((6S)-4-(4-chlorophenyl)-2,3,9-trimethyl-6H-thieno[3,2-f][1,2,4]triazolo[4,3-a][1,4]diazepin-6-yl)-1-(4-((4-(4-(3-(2,4-dihydroxy-5-isopropylphenyl)-5-mercapto-4H-1,2,4-triazol-4-yl)benzyl)piperazin-1-yl)methyl)piperidin-1-yl)ethanone, trifluoroacetic acid]
- IC50 (HSP90α): < 0.1 µM
- IC50 (BRD4 (BD1+BD2)): > 1 µM
- IC50 at 72 h (MV4-11 cells): < 0.1 µM

Structure (SMILES): Cc1sc2c(c1C)C(c1ccc(Cl)cc1)=N[C@@H](CC(=O)N1CCC(CN3CCN(Cc4ccc(-n5c(C(=O)NCC(F)(F)F)nnc5-c5cc(C(C)C)c(O)cc5O)cc4)CC3)CC1)c1nnc(C)n1-2 [Compound 13, 4-(4-((4-((1-(2-((6S)-4-(4-chlorophenyl)-2,3,9-trimethyl-6H-thieno[3,2-f][1,2,4]triazolo[4,3-a][1,4]diazepin-6-yl)acetyl)piperidin-4-yl)methyl)piperazin-1-yl)methyl)phenyl)-5-(2,4-dihydroxy-5-isopropylphenyl)-N-(2,2,2-trifluoroethyl)-4H-1,2,4-triazole-3-carboxamide]
- IC50 (HSP90α): 0.1 to 1 µM
- IC50 (BRD4 (BD1+BD2)): 0.1 to 1 µM
- IC50 at 72 h (MV4-11 cells): < 0.1 µM

Structure (SMILES): CCc1cc(-c2nnc(C(=O)NCC(F)(F)F)n2-c2ccc(CN3CCN(CC4CCN(C(=O)C[C@@H]5N=C(c6ccc(Cl)cc6)c6c(sc(C)c6C)-n6c(C)nnc65)CC4)CC3)cc2)c(O)cc1O [Compound 14, 4-(4-((4-((1-(2-((6S)-4-(4-chlorophenyl)-2,3,9-trimethyl-6H-thieno[3,2-f][1,2,4]triazolo[4,3-a][1,4]diazepin-6-yl)acetyl)piperidin-4-yl)methyl)piperazin-1-yl)methyl)phenyl)-5-(5-ethyl-2,4-dihydroxyphenyl)-N-(2,2,2-trifluoroethyl)-4H-1,2,4-triazole-3-carboxamide, trifluoroacetic acid]
- IC50 (HSP90α): 0.1 to 1 µM
- IC50 (BRD4 (BD1+BD2)): > 1 µM
- IC50 at 72 h (MV4-11 cells): < 0.1 µM

Structure (SMILES): Cc1cc(-c2nnc(C(=O)NCC(F)(F)F)n2-c2ccc(CN3CCN(CC4CCN(C(=O)C[C@@H]5N=C(c6ccc(Cl)cc6)c6c(sc(C)c6C)-n6c(C)nnc65)CC4)CC3)cc2)c(O)cc1O [Compound 15, 4-(4-((4-((1-(2-((6S)-4-(4-chlorophenyl)-2,3,9-trimethyl-6H-thieno[3,2-f][1,2,4]triazolo[4,3-a][1,4]diazepin-6-yl)acetyl)piperidin-4-yl)methyl)piperazin-1-yl)methyl)phenyl)-5-(2,4-dihydroxy-5-methylphenyl)-N-(2,2,2-trifluoroethyl)-4H-1,2,4-triazole-3-carboxamide, trifluoroacetic acid]
- IC50 (HSP90α): 0.1 to 1 µM
- IC50 (BRD4 (BD1+BD2)): > 1 µM
- IC50 at 72 h (MV4-11 cells): < 0.1 µM

Structure (SMILES): Cc1sc2c(c1C)C(c1ccc(Cl)cc1)=N[C@@H](CC(=O)N1CCC(CN3CCN(Cc4ccc(-n5c(O)nnc5-c5cc(C(C)C)c(O)cc5O)cc4F)CC3)CC1)c1nnc(C)n1-2 [Compound 17, (S)-2-(4-(4-chlorophenyl)-2,3,9-trimethyl-6H-thieno[3,2-f][1,2,4]triazolo[4,3-a][1,4]diazepin-6-yl)-1-(4-((4-(4-(3-(2,4-dihydroxy-5-isopropylphenyl)-5-hydroxy-4H-1,2,4-triazol-4-yl)-2-fluorobenzyl)piperazin-1-yl)methyl)piperidin-1-yl)ethan-1-one, trifluoroacetic acid]
- IC50 (HSP90α): 0.1 to 1 µM
- IC50 (BRD4 (BD1+BD2)): > 1 µM
- IC50 at 72 h (MV4-11 cells): < 0.1 µM

Structure (SMILES): Cc1nn(-c2ccc(C(N)=O)c(NCCOCCNC(=O)C[C@@H]3N=C(c4ccc(Cl)cc4)c4c(sc(C)c4C)-n4c(C)nnc43)c2)c2c1C(=O)CC(C)(C)C2 [Compound 20, 2-((2-(2-(2-((6S)-4-(4-chlorophenyl)-2,3,9-trimethyl-6H-thieno[3,2-f][1,2,4]triazolo[4,3-a][1,4]diazepin-6-yl)acetamido)ethoxy)ethyl)amino)-4-(3,6,6-trimethyl-4-oxo-4,5,6,7-tetrahydro-1H-indazol-1-yl)benzamide]
- IC50 (HSP90α): > 1 µM
- IC50 (BRD4 (BD1+BD2)): > 1 µM
- IC50 at 72 h (MV4-11 cells): 0.1 to 1 µM

Structure (SMILES): Cc1nn(-c2ccc(C(N)=O)c(NCCOCCOCCNC(=O)C[C@@H]3N=C(c4ccc(Cl)cc4)c4c(sc(C)c4C)-n4c(C)nnc43)c2)c2c1C(=O)CC(C)(C)C2 [Compound 21, 2-((2-(2-(2-(2-((6S)-4-(4-chlorophenyl)-2,3,9-trimethyl-6H-thieno[3,2-f][1,2,4]triazolo[4,3-a][1,4]diazepin-6-yl)acetamido)ethoxy)ethoxy)ethyl)amino)-4-(3,6,6-trimethyl-4-oxo-4,5,6,7-tetrahydro-1H-indazol-1-yl)benzamide, trifluoroacetic acid]
- IC50 (HSP90α): > 1 µM
- IC50 (BRD4 (BD1+BD2)): > 1 µM
- IC50 at 72 h (MV4-11 cells): 0.1 to 1 µM

Structure (SMILES): Cc1nn(-c2ccc(C(N)=O)c(NCCOCCC3CCN(C(=O)C[C@@H]4N=C(c5ccc(Cl)cc5)c5c(sc(C)c5C)-n5c(C)nnc54)CC3)c2)c2c1C(=O)CC(C)(C)C2 [Compound 23, 2-((2-(2-(1-(2-((6S)-4-(4-chlorophenyl)-2,3,9-trimethyl-6H-thieno[3,2-f][1,2,4]triazolo[4,3-a][1,4]diazepin-6-yl)acetyl)piperidin-4-yl)ethoxy)ethyl)amino)-4-(3,6,6-trimethyl-4-oxo-4,5,6,7-tetrahydro-1H-indazol-1-yl)benzamide, trifluoroacetic acid]
- IC50 (HSP90α): > 1 µM
- IC50 (BRD4 (BD1+BD2)): > 1 µM
- IC50 at 72 h (MV4-11 cells): 0.1 to 1 µM

Structure (SMILES): Cc1nn(-c2ccc(C(N)=O)c(NCCOCCN3CCN(C(=O)C[C@@H]4N=C(c5ccc(Cl)cc5)c5c(sc(C)c5C)-n5c(C)nnc54)CC3)c2)c2c1C(=O)CC(C)(C)C2 [Compound 24, 2-((2-(2-(4-(2-((6S)-4-(4-chlorophenyl)-2,3,9-trimethyl-6H-thieno[3,2-f][1,2,4]triazolo[4,3-a][1,4]diazepin-6-yl)acetyl)piperazin-1-yl)ethoxy)ethyl)amino)-4-(3,6,6-trimethyl-4-oxo-4,5,6,7-tetrahydro-1H-indazol-1-yl)benzamide]
- IC50 (HSP90α): > 1 µM
- IC50 (BRD4 (BD1+BD2)): > 1 µM
- IC50 at 72 h (MV4-11 cells): 0.1 to 1 µM
